The source of these data is US9099654B2, “Benzofluorene compound, emission materials and organic electroluminescent device” (JNC Corporation, priority 2006, dated 2015).

This data set in a line: Solubility in solvents at 25° C. (Table 1). The format is physicochemical.

With `c1ccc(C2(c3ccccc3)c3cc(-c4ccc5ccccc5c4)ccc3-c3ccc4cc(-c5ccc6ccccc6c5)ccc4c32)cc1` [Compound (2), 3,9-dinaphthalene-2-yl-11,11-diphenyl-11H-benzo[a]fluorene, reference compound], the “Solubility (25° C.) g/100 ml (ethyl acetate)” value was determined as 0.2 g/100 ml and the “Solubility (25° C.) g/100 ml (toluene)” value is on record as 0.9 g/100 ml.

In the case of `c1ccc(C2(c3ccccc3)c3cc(-c4ccc5ccccc5c4)ccc3-c3c2cc(-c2ccc4ccccc4c2)c2ccccc32)cc1` [Compound (1-13)], the “Solubility (25° C.) g/100 ml (ethyl acetate)” value was 1 g/100 ml and the “Solubility (25° C.) g/100 ml (toluene)” value is 8 g/100 ml. Also, the “solubility in the solvents compared with compound (2)” value (ethyl acetate and toluene, comparison in words) is “apparently more excellent in solubility in the solvents than the compound (2)”.
